This note sets out measurements from US5179109A (priority 1988, dated 1993).

The subject of one experiment is Swiss mice. The experiment is described as follows: Simple rotary bar test (dose at which 50% of the animals drop). The class given is in vivo. The conditions noted are these: for ED50: Mus musculus, sc. The procedure: In this example, the properties of compounds 1 to 5 and 8 to 11 are tested on Swiss mice.
Different doses of the compounds to be tested are administered subcutaneously to the mice and the latter are then placed in batches of 10 on a rotary bar, being separated from one another by separating disks. This bar is made from scraped wood, has a diameter of 3 cm and is moved horizontally with a uniform circular movement about its axis at a speed of 10 rpm.
Determination takes place of the ED50, which is the dose at which 50% of the animals drop, the dose being expressed in mg/kg.

The target of experiment [1] is cerebral cholinergic muscarinic receptor. The class given is binding, rat. The following applies: for IC50: rat brain homogenate, read-out: ^3 HQNB IC50; for ^3 HQNB/^3 HTCP: ratio of IC50.
The subject of the next experiment is site of PCP. Put plainly: Affinity for the PCP site, competition with (^3 H)PCP on rat brain homogenates. The experiment is classed as binding. The conditions noted are these: rat brain homogenate, pH 7.7, 25° C., 1 nmole tritiated ligand.
The next experiment deals with hippocampal cells. Put plainly: Protection of hippocampal cells in vitro against acute glutamate damage. The experiment is classed as cell-based, rat. Also on record: key: ++: severe damage; +: partial protection; -: no damage. The conditions noted are these: 24 h after 5 min exposure to glutamate. The procedure:
(§1) This example illustrates the effect of the arylcyclohexylamines according to the invention on in vitro cultures of rat brain cells as a neuroprotector against acute attacks caused by the presence of glutamate.
(§2) Cortical and hippocampal neuron cultures were prepared from the fetuses of rats aged from 17 to 18 days. The hemispheres or hippocampi are dissected and immersed in a buffer containing EDTA (Versene) for 10 min. The tissues are then mechanically dissociated in a saline PUCK solution free from calcium and magnesium and centrifuged at 70 g for 10 min. The centrifuging deposit is resuspended in a culture medium constituted by 60% of the minimum essential Eagle medium (MEM), 25% of a saline Hank solution, 5% of human serum, 5% of calf foetus serum, 5% of embryo extract and which are complemented with 6% glucose. The cells are introduced at a density of 10^6 cells per ml into 24 Wells previously coated with polylysine D. The cultures are allowed to grow for 3 weeks, […] of the culture medium being renewed every 3 days. The test is carried out in the following way. Glutamate dissolved in 10 μl of MEM is added to the medium in order to obtain a final glutamate concentration of 5·10^-4 M. After exposure for 5 min, the medium is changed. For studying the antagonist derivatives of the glutamate, to the culture medium is added the compound to be test in 10 μl of MEM in order to obtain a final concentration of compound of 200, 20 or 0.2·10^-6 M. Five minutes later, glutamate is added to the medium and then the medium is replenished after exposure for 5 minutes. The protected and unprotected cultures are then examined and photographed at intervals between 30 min and 24 h.

The next experiment has as its system site of TCP. The experiment is described as follows: Affinity for the TCP site, competition with (^3 H)TCP on rat brain homogenates. The class given is binding. The conditions noted are these: rat brain homogenate, pH 7.7, 25° C., 1 nmole tritiated ligand; read-out: ^3 HTCP IC50.
In experiment [2] the test system is synaptosomal striatal (^3 H)DA capture. The experiment is described as follows: Inhibition test of the synaptosomal striatal sample (capture) of (^3 H)DA. The class given is biochemical, Wistar rats. The conditions noted are these: for IC50: rat striatal synaptosomes, 5 nM (^3 H)DA, 5 min at 30° C., pH 7.4, read-out: ^3 HDA IC50; for ^3 HDA/^3 H-TCP: ratio of IC50. The method, then:
This test is carried out according to the method used by Vignon and Lazdunski operating in the following way. Wistar rats weighing 200 to 250 g are killed by cervical dislocation. Their brains are rapidly removed and the striae dissected on ice. The striae are then homogenized with a Teflon glass Potter homogenizer in 50 volumes of tris HCl 10 mM buffer containing 0.32M of sucrose at pH 7.4 and they are centrifuged at 1000 g for 10 min. The supernatants are further centrifuged at 10000 g for 20 min. The resulting deposits P2 containing the crude synaptosomes are used without supplementary purification.
The synaptosomes are balanced with the compound to be tested for 30 min at 30° C. in the Ringer medium (mM: 140 NaCl, 5 KCl, 2.6 CaCl2, 1.3 MgSO4, 10 tris-HCl, pH=7.4)+200 μM of pargyline. This is followed by the addition of (^3 H)DA labelled dopamine at a final concentration of 5 nM for 5 min at 30° C. and sampling is interrupted by filtration of the incubate (150 μl) on GF/B filters. The non-specific sample is measured at 4° C. in parallel incubations and is deducted from the total sample at 30° C. The IC50 is the compound concentration preventing 50% of the specific capture compared with the control in the absence of an inhibitor.

Experiment [3] deals with cortical and hippocampal neurons. The experiment is described as follows: Protection of cortical and hippocampal neuron cultures against glutamate. The class given is cell-based, rat. The method, then: as §1, §2
In another experiment the test system is cortical cells. The experiment is described as follows: Protection of cortical cells in vitro against acute glutamate damage. The class given is cell-based, rat. The conditions noted are these: 24 h after 5 min exposure to glutamate. Also on record: key: ++: severe damage; +: partial protection; -: no damage. The method, then:
as §1, §2

Experiment [4] deals with cortical and hippocampal neurons. Put plainly: In vitro neuron culture survival after 2 months, count of neurons (Example 23). The class given is cell-based, rat. The following applies: single dose at start of third week; TCP 2.5 and 20, compound 9 and MK801 2.5 and 5 μmole/l; control 50 neurons/mm^2. The procedure:
This example also illustrates the effect of the arylcyclohexylamines according to the invention on the in vitro neuron culture survival. As in example 21, cortical and hippocampal neuron cultures are prepared. At the start of the third culturing week, the cells are treated with a single dose of the compound to be tested and culturing is continued for two months. At the end of this period, the cells which were fixed and dyed to reveal the specific enolase of the neurons are subject to counts in order to determine the quantity of cells per surface unit.
The results obtained are given in FIG. 1, which is a histogram indicating the number of cells/mm^2 which survived after 2 months culturing.
The results are given for the control, i.e. for untreated cultures, cultures treated with 2.5 and 20 μmole/l of TCP, cultures treated by compound no. 9 at concentrations of 2.5 and 5 μmole/l and cultures treated by compound MK801 at concentrations of 2.5 and 5 μmole/l. Compound MK801, which is known to have a neuroprotection activity, is (+)-methyl-5-dihydro-10,11(5H)dibenzo(A,D) cyclohepteneimine-5,10 of formula: [drawing 38] From FIG. 1 it can be seen that the control cultures, after surviving for 2 months, on average contain 50 neurons/mm^2. The treated cultures, no matter what the compound and dose used, contain more than 500 neurons/mm^2.

Another experiment addresses T1, receptor of the opiates (Rattus norvegicus, UniProt P33535).
T1 construct: variable concentrations of the tested compound and a rat brain homogenate; from tissue; host or cells: rat brain homogenate
Put plainly: Competition test with ^3 H-DHM for the receptor of the opiates. The experiment is classed as binding. The procedure:
In this test, a fixed concentration of ^3 H-DHM labelled morphine was incubated in the presence of variable concentrations of the tested compound and a rat brain homogenate. The concentration of the compound preventing the fixing of 50% of ^3 H-DHM (IC50) is a measure of the affinity of the compound for the receptor of the opiates. The latter also gives the results obtained with PCP and TCP, as well as the ratios H^3 DA/^3 H-TCP, ^3 HQNB/^3 H-TCP and ^3 HDHM/^3 HTCP obtained with the different tested compounds.

The mark [5] stands for this setting: Swiss mice, subcutaneous, dose at which 50% of the animals drop, read-out: ED50.

Like-named read-outs stand apart in the source and are kept apart here.

Broadly, the ED50 is the dose that gives a 50% effect, or the effect in half of the subjects. The IC50 is the concentration that gives 50% inhibition.

T1 sequence (P33535 whole entry): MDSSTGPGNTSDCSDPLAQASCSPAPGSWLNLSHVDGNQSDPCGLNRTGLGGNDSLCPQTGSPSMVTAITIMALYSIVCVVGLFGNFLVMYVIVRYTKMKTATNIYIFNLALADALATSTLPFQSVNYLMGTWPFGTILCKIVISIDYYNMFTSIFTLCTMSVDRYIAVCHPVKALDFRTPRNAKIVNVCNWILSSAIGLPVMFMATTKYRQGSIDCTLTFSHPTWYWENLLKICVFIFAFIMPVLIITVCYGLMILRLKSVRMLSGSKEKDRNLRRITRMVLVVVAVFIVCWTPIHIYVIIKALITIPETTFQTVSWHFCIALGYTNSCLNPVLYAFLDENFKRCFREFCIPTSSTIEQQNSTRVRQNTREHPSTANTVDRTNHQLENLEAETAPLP

For `O[C@H]1CCCC[C@]1(c1ccccc1)N1CCCCC1` (relative stereo) [compound 11, t-hydroxy-2 phenyl-1-r-(piperidino-1)-1 cyclohexane], the ED50 in the experiment with Swiss mice (setting [5]) is 17 mg/kg. For the same compound, in experiment [1], the IC50 turned out to be 125 µM and the “^3 HQNB/^3 HTCP” value worked out at 106.8. Further, in the experiment on site of PCP, the half-inhibitory concentration (IC50) worked out at 1.17 µM.

In the case of `C1=CCN(C2(c3cccs3)CCCCC2)CC1` [Compound No. 2, ((tetrahydro-1,2,5,6pyridino)-1)-1 (thienyl-2)-1 cyclohexane], the ED50 with Swiss mice (setting [5]) came to 4 mg/kg. Besides, the IC50 was determined as 25 µM in [1], 0.026 µM in the experiment on site of TCP, 4.7 µM in experiment [2] and 0.017 µM in the experiment with site of PCP. In addition, the “^3 HQNB/^3 HTCP” value in [1] was found to be 961. Besides, the “Treatment of hippocampal cells, damage” value in the experiment on hippocampal cells (0.2 μM) is “++”; in the experiment with hippocampal cells (2 μM), “+”; in the experiment with hippocampal cells (20 μM), “-”; in the experiment on hippocampal cells (200 μM) it was “-”. The “protection of the cultures against glutamate” value in [3] (0.2 μmole, 24 h after 5 min exposure to glutamate) was “no protection”; in [3] (2 μmole, 24 h after 5 min exposure to glutamate) it was “only a limited protection”. The “damage of the cultures by glutamate” value in experiment [3] (20 μmole, 24 h after 5 min exposure to glutamate) is on record as “only very slightly damaged”. For the same compound, the “appearance of hippocampal and cortical cell cultures” value in experiment [3] (after 24 h, glutamate exposure) is “appear healthy in the same way as the control cells”. Besides, the acute swelling entry in [3] (glutamate exposure) is reported as “less intense”. Further, the necrosis result in [3] (glutamate exposure) is given as “completely blocked”. Also, the “Treatment of cortical cells, damage” value is reported as “++” in the experiment on cortical cells (0.2 μM), “+” in the experiment with cortical cells (2 μM), “-” with cortical cells (20 μM) and “-” with cortical cells (200 μM).

For the compound `C[C@]12N[C@H](Cc3ccccc31)c1ccccc12` [MK801, (+)-methyl-5-dihydro-10,11(5H)dibenzo(A,D) cyclohepteneimine-5,10, reference compound], the “number of neurons which survived after 2 months culturing” value in experiment [4] is “more than 500 neurons/mm^2”.

Compound `c1ccc(C2(N3CCCCC3)CCCCC2)cc1` [PCP, 1-(1-phenylcyclohexyl)-piperidine, reference compound] came in with an ED50 in the experiment on Swiss mice of 4 mg/kg. Further, the IC50 worked out at 30 µM in [1]; 0.2 µM with site of TCP; 0.5 µM in experiment [2]; 26 µM at receptor of the opiates; 0.25 µM in the experiment with site of PCP. Also, in [1], the “^3 HQNB/^3 HTCP” value amounted to 150. The “^3 HDA/^3 H-TCP” value in experiment [2] stood at 2.5. Moreover, at receptor of the opiates (ratio of IC50), the “^3 HDHM/^3 HTCP” value amounted to 130.

`CC1CCN(C2(c3ccccc3)CCCCC2)CC1` [compound 1, ((methyl-4 piperidino)-1)-1 phenyl-1 cyclohexane]: in the experiment with Swiss mice (setting [5]), the ED50 came to 20 mg/kg. The IC50 in experiment [2] is 5 µM; with site of PCP it was 0.4 µM. In addition, in experiment [2], the “^3 HDA/^3 H-TCP” value is 125.

With `C[C@H]1CC[C@@](c2cccs2)(N2CCCC(CO)C2)CC1` (stereo partly drawn) [compound 5, r-(hydroxymethyl-3-piperidino)-1-c-methyl-4 (thienyl-2)-1 cyclohexane], the ED50 in the experiment with Swiss mice (setting [5]) was determined as 8 mg/kg. Besides, in experiment [1], the concentration for half-maximal inhibition (IC50) was 110 µM and the “^3 HQNB/^3 HTCP” value was determined as 289. For the same compound, in the experiment on site of PCP, the concentration for half-maximal inhibition (IC50) came out at 0.38 µM.

For the compound `CC(=O)OCC1CCCN(C2(c3ccccc3)CCCCC2)C1` (stereo not drawn) [compound 6, acetate of ((hydroxymethyl-3-piperidino)-1)-1 phenyl-1 cyclohexane], the values for the IC50 (in experiment [1]; with site of PCP) were 140 µM and 1.1 µM, respectively. Also, the “^3 HQNB/^3 HTCP” value in experiment [1] was found to be 127.

For `C[C@H]1CC[C@@](c2cccc(F)c2)(N2CCCC(CO)C2)CC1` (stereo partly drawn) [compound 7, ((fluoro-3 phenyl)-1)-r-((hydroxymethyl-3 piperidino)-1)-1-c-methyl-4 cyclohexane], in experiment [1], the IC50 is 760 µM and the “^3 HQNB/^3 HTCP” value came to 168. The compound further gave an IC50 in the experiment with site of PCP of 4.5 µM.

Regarding `ClCC1CCCN(C2(c3cccs3)CCCCC2)C1` (stereo not drawn) [compound 8, [(chloromethyl-3 piperidino)-1]-1 (thienyl-2)-1 cyclohexane], the ED50 with Swiss mice (setting [5]) was 150 mg/kg. The “rotary bar activity, in words” value with Swiss mice (Swiss mice, subcutaneous) is “low activity compared with the other compounds”. In experiment [1], the IC50 was found to be 870 µM and the “^3 HQNB/^3 HTCP” value is reported as 1553. Moreover, the IC50 with site of PCP is 0.56 µM.

For `C[C@H]1CC[C@](c2cccs2)(N2CCCCC2)CC1` [compound 10], in the experiment with Swiss mice (setting [5]), the 50% effective dose (ED50) came out at 19 mg/kg. Besides, the IC50 in [1] turned out to be 29.3 µM; in the experiment with site of TCP, 0.034 µM; in experiment [2] it was 3.6 µM; in the experiment with site of PCP, 0.14 µM. In addition, the “^3 HQNB/^3 HTCP” value in experiment [1] was found to be 862. The “^3 HDA/^3 H-TCP” value in [2] is on record as 105.
